What was measured:
Neisseria gonorrheae = settings: earlier work, U.S. application Ser. No. 10/986,512; cited from earlier work
Aspergillus fungi = test: Mycelium formation on Todd Hewitt agar plates containing GML, Aspergillus; format: cell-based; settings: for mycelium growth on plates: 36 hours, room temperature
Experimental: (§1) Organisms (at the spore phase) of Aspergillus and Penicillium fungi obtained from nature were separately streaked on Todd Hewitt agar plates containing various concentrations of GML. The plates were incubated at room temperature for 36 hours after which mycelium growth was determined by direct visual examination. […] In contrast, the organisms grew on plates containing 0 and 50 μg/ml.

[1] = test system: Haemophilus influenzae (two clinical isolates); test: Haemophilus influenzae growth on chocolate agar plates with GML; format: cell-based
Experimental: G. vaginalis was formerly designated Haemophilus vaginalis. This consideration raised the possibility that GML would inhibit the growth of Haemophilus influenzae. Two recent clinical isolates of encapsulated (capsule type not typable) Haemophilus influenzae (0.1 ml at 1.0×10^7/ml plated) organisms were tested for ability to grow on chocolate agar plates with no or various concentrations of GML (Table 4; data obtained after 24 of culture). The growth of both strains was inhibited at GML concentrations of 10 μg/ml or greater.

[2] = test system: Candida albicans (clinical isolates, yeast phase); test: Yeast phase Candida albicans liquid cultures with GML, CFU/ml by plating; format: cell-based
Experimental: The Candida albicans samples that were tested in the experiments described in Examples 2 and 3 were recent clinical isolates. The strains were of low passage and were maintained on Todd Hewitt (Difco Laboratories, Detroit, Mich.) agar plates. The organisms were transferred to 25 ml Todd Hewitt broth cultures in 125 ml Erlenmeyer flasks and grown overnight at 37° C. in 7% CO2 with shaking at 200 revolutions per minute (RPM). The next morning the organisms were transferred to new 125 ml flasks containing 25 ml Todd Hewitt medium at a final concentration of 1×10^6 colony forming units (CFU)/ml. […] The GML was made up at a concentration of 100,000 μg/ml in absolute ethanol for addition to the flasks. […] The flasks were cultured for up to 24 hours at 37° C. in 7% CO2 with shaking at 200 revolutions per minute. […] This experiment was performed twice.
The effect of growing yeast phase organisms of a clinical isolate of Candida albicans in the presence of GML was tested in liquid cultures as described in Example 1. […] The GML-mediated killing effect was not seen in cultures containing 20 and 10 μg/ml of GML. […] The experiment was repeated with identical results. The experiment was also carried out with a second clinical isolate of Candida albicans.

Escherichia coli = test: Direct toxicity of GML to Escherichia coli; format: cell-based
From the text: Thus, it was surprising to discover that a number of other bacterial genera (see below) were highly sensitive to the direct toxic effects of GML.

Gardnerella vaginalis = test: G. vaginalis growth on chocolate agar plates with GML; format: cell-based; settings: 24 hours
Experimental: Cells (1.2×10^7/ml in a total volume of 25 ml of dialyzable beef heart medium) of a recent clinical isolate of the gram negative rod Gardnerella vaginalis in vitro were cultured for various lengths of time with various concentrations of GML. At the various time points, the concentration of bacteria in the cultures were determined by colony counting on chocolate agar plates. GML at concentrations as low as 5 μg/ml were bactericidal to G. vaginalis. […] This finding points to the likely efficacy of GML in vivo. Moreover, GML (5 μg/ml or greater) inhibited growth of G. vaginalis plated (0.1 ml at 1.2×10^7/ml) onto chocolate agar plates (Table 3; data obtained after 24 hours of culturing).

[3] = test system: Candida albicans (five clinical isolates); test: Growth inhibition of five other clinical isolates of Candida albicans in liquid culture (absorbance at 600 nm, CFU/ml); format: cell-based; settings: for average CFU/ml after culturing: 6 hours, start about 10^6 CFU/ml
Experimental: Five clinical isolates of Candida albicans (separate from those tested in experiments described in Example 2) were tested for susceptibility to growth inhibition by GML. The data in FIG. 3 are the means of values obtained by separately testing each of the five clinical isolates. The experiments were performed in liquid culture as described in Example 2 except that, instead of measuring the number of organisms in the cultures by plating on agar plates, values of absorbance at 600 nm were determined at the indicated time points. An absorbance value of 6.5 corresponds to about 5×10^8 CFU/ml of Candida albicans. The growth of all of the isolates was inhibited by GML. Culturing for 6 hours 0.1 ml aliquots of the isolates (containing about 10^6 CFU/ml) in 100 μg/ml and 500 μg/ml of GML yielded an average of about 700 CFU/ml and about 400 CFU/ml, respectively.

[4] = test system: Candida albicans (11 clinical isolates, hyphal phase); test: Hyphal phase Candida albicans growth on Todd Hewitt agar plates containing GML; format: cell-based; settings: 48 hours
Experimental: Candida albicans microorganisms were cultured on a Todd Hewitt agar plate for 48 hours at 37° C. in the presence of 7% CO2 to promote growth of hyphal forms. This plate was used to streak the microorganisms for isolation on Todd Hewitt agar plates containing 0, 10, 20, 50, or 100 μg/mL of GML. The plates were incubated for 48 hours and examined for Candida growth. The experiment was done in duplicate plates. The results obtained with duplicate plates were the same.
Organisms (at the hyphal phase) of 11 clinical isolates of Candida albicans were separately streaked on Todd Hewitt agar plates containing various concentrations of GML. The experiments were performed in duplicate. […] In contrast, the organisms grew on plates containing 0, 10 and 20 μg/ml.

Penicillium fungi = test: Mycelium formation on Todd Hewitt agar plates containing GML, Penicillium; format: cell-based; settings: for mycelium growth on plates: 36 hours, room temperature
Experimental: as §1

[5] = 50 μg/ml GML, about 4 days compared to 36 hours
[6] = 100 and 500 μg/ml GML, about 4 days
[7] = first clinical isolate, 50, 200 and 1000 μg/ml GML, by 4 hours

For CCCCCCCCCCCC(=O)OCC(O)CO (stereo not shown) [GML, glycerol monolaurate], the “resistance to direct toxic effects of GML” value (Neisseria gonorrheae) is listed as “relatively resistant”, the “mycelium growth on plates” value (Aspergillus fungi; 50 μg/ml GML) is listed as “grew” and the “colony size on plates” value (Aspergillus fungi; [5]) is listed as “larger in size”. For the same compound, the “mycelium growth on plates” value (Aspergillus fungi; 100 and 500 μg/ml GML) was “failed to grow”, the “visible colonies on plates” value (Aspergillus fungi; [6]) was “no visible colonies” and the “Growth Characteristics (Strain 1)” value ([1]; GML 1 μg/ml) was “Confluent growth”. The “Growth Characteristics (Strain 2)” value ([1]; GML 1 μg/ml) was “Confluent growth”, the “Growth Characteristics (Strain 1)” value ([1]; GML 5 μg/ml) was “Confluent growth” and the “Growth Characteristics (Strain 2)” value ([1]; GML 5 μg/ml) was “Confluent growth”. The “Growth Characteristics (Strain 1)” value ([1]; GML 10 μg/ml) was “No visible growth”, the “Growth Characteristics (Strain 2)” value ([1]; GML 10 μg/ml) was “No visible growth” and the “Growth Characteristics (Strain 1)” value ([1]; GML 20 μg/ml) was “No visible growth”. For the same compound, the “Growth Characteristics (Strain 2)” value ([1]; GML 20 μg/ml) was “No visible growth”, the “Growth Characteristics (Strain 1)” value ([1]; GML 50 μg/ml) was “No visible growth” and the “Growth Characteristics (Strain 2)” value ([1]; GML 50 μg/ml) was “No visible growth”. For the same compound, the “Growth Characteristics (Strain 1)” value ([1]; GML 100 μg/ml) was “No visible growth”, the “Growth Characteristics (Strain 2)” value ([1]; GML 100 μg/ml) was “No visible growth” and the “GML concentration at which growth was inhibited” value ([1]; both strains, chocolate agar plates) was at least 10 µg/mL. The growth in culture ([2]; first clinical isolate, 20 and 10 μg/ml GML) was “grew to almost the same level as in the control cultures”, the “organisms detectable in culture” value [2, 7] was “no organisms were detectable” and the “reduction in CFU/ml” value [2, 7] was over 5 log. For the same compound, the “number of organisms in culture compared to 0 μg/ml” value ([2]; second clinical isolate, 50 μg/ml GML, 2, 4 and 6 hours) was “reduced at all time intervals sampled”, the “organisms detectable in culture” value ([2]; second clinical isolate, 100 and 500 μg/ml GML, by 2 hours) was “no organisms were detectable” and the “resistance to direct toxicity by GML” value (Escherichia coli) was “relatively resistant”. The “GML concentration that inhibited growth of G. vaginalis” value (Gardnerella vaginalis) was at least 5 µg/mL, the “Growth Characteristics” value (Gardnerella vaginalis; GML 1 μg/ml) was “Confluent growth” and the “Growth Characteristics” value (Gardnerella vaginalis; GML 5 μg/ml) was “No visible growth”. The “Growth Characteristics” value (Gardnerella vaginalis; GML 10 μg/ml) was “No visible growth”, the “Growth Characteristics” value (Gardnerella vaginalis; GML 20 μg/ml) was “No visible growth” and the “Growth Characteristics” value (Gardnerella vaginalis; GML 50 μg/ml) was “No visible growth”. The “Growth Characteristics” value (Gardnerella vaginalis; GML 100 μg/ml) was “No visible growth”, the “average CFU/ml after culturing” value ([3]; 100 μg/ml GML) was “about 700 CFU/ml” and the “average CFU/ml after culturing” value ([3]; 500 μg/ml GML) was “about 400 CFU/ml”. For the same compound, the “growth of the isolates” value ([3]; five clinical isolates, liquid culture, absorbance at 600 nm) was “inhibited”, the “growth on agar plates” value ([4]; 10 and 20 μg/ml GML) was “grew” and the “growth on agar plates” value ([4]; 50 and 100 μg/ml GML) was “failed to grow”. For the same compound, the “mycelium growth on plates” value (Penicillium fungi; 50 μg/ml GML) was “grew”, the “colony size on plates” value (Penicillium fungi; [5]) was “larger in size” and the “mycelium growth on plates” value (Penicillium fungi; 100 and 500 μg/ml GML) was “failed to grow”. The “visible colonies on plates” value (Penicillium fungi; [6]) was “no visible colonies”.
